Measurements as given in patent US20260274892A1, “MACROCYCLIC BROAD SPECTRUM ANTIBIOTICS” (RQx Pharmaceuticals, Inc., priority 2017, published 2026).
Values belong to the molecule of their own block, whether it stands above or below them.

Test system: Escherichia coli ATCC 25922
Assay: Minimum inhibitory concentration (MIC), CLSI broth micro-dilution, E. coli
Format: cell-based
Conditions: Escherichia coli
How it was run: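 Antibacterial potency is measured as MIC by the CLSI broth dilution method. Bacteria at OD600 0.0005 in Tween-80-supplemented cation-adjusted Mueller Hinton broth face ten twofold compound dilutions for 22 h at 35° C.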

[1] = ATCC25922, Table 6, cation adjusted Mueller Hinton Broth + 0.002% Tween-80, 35° C., 22 hours
[2] = ATCC25922, 22 h, Table 7, cation adjusted Mueller Hinton Broth + 0.002% Tween-80, 35° C.
[3] = ATCC25922, 22 h, Table 6, cation adjusted Mueller Hinton Broth + 0.002% Tween-80, 35° C.
[4] = ATCC25922, Table 7, cation adjusted Mueller Hinton Broth + 0.002% Tween-80, 35° C., 22 hours

Structure (SMILES): Cc1nc(-c2ccc(OCC(C)(C)C)cc2)ncc1C(=O)N[C@@H](CCN)C(=O)N(C)[C@@H]1C(=O)N[C@@H](C)C(=O)N[C@H](C(=O)NCC#N)Cc2ccc(OCCN)c(c2)-c2cc1ccc2OCCN (racemic) [Compound 252, rac-(8S,11S,14S)-3,18-bis(2-aminoethoxy)-N-(cyanomethyl)-11-methyl-14-[methyl-[rac-(2S)-4-amino-2-[[2-[4-(2,2-dimethylpropoxy)phenyl]-4-methyl-pyrimidine-5-carbonyl]amino]butanoyl]amino]-10,13-dioxo-9,12-diazatricyclo[13.3.1.12,6]icosa-1(18),2(20),3,5,15(19),16-hexaene-8-carboxamide]
MIC [1]: 0.097 µM

MIC [2]: 0.25 µM
Structure (SMILES): Cc1nc(-c2ccc(C(C)(C)C)cc2)nc(C)c1C(=O)N[C@@H](CCN)C(=O)N(C)[C@@H]1C(=O)N[C@@H](C)C(=O)N[C@H](C(=O)NCC#N)Cc2ccc(OCCN)c(c2)-c2cc1cc(NC(N)=O)c2O (racemic) [Compound 621, rac-(8S,11S,14S)-3-(2-aminoethoxy)-N-(cyanomethyl)-18-hydroxy-11-methyl-14-[methyl-[rac-(2S)-4-amino-2-[[2-(4-tert-butylphenyl)-4,6-dimethyl-pyrimidine-5-carbonyl]amino]butanoyl]amino]-10,13-dioxo-17-ureido-9,12-diazatricyclo[13.3.1.12,6]icosa-1(18),2(20),3,5,15(19),16-hexaene-8-carboxamide]

MIC [3]: 0.5 µM
Structure (SMILES): C[C@@H]1NC(=O)[C@@H](N(C)C(=O)[C@H](CCN)NC(=O)C2C3CC(c4ccc(C(C)(C)C)cc4)CC32)c2ccc(OCCN)c(c2)-c2cc(ccc2OCCN)C[C@@H](C(=O)NCC#N)NC1=O (some centres unmarked) [Compound 488]

MIC [3]: 0.19 µM
Structure (SMILES): Cc1nc(-c2ccc(OCCCCC(C)(C)C)cc2)nc(C)c1C(=O)N[C@@H](CCN)C(=O)N(C)[C@@H]1C(=O)N[C@@H](C)C(=O)N[C@H](C(=O)NCC#N)Cc2ccc(OCCN)c(c2)-c2cc1ccc2OCCN (racemic) [Compound 357, rac-(8S,11S,14S)-3,18-bis(2-aminoethoxy)-N-(cyanomethyl)-11-methyl-14-[methyl-[rac-(2S)-4-amino-2-[[2-[4-(5,5-dimethylhexoxy)phenyl]-4,6-dimethyl-pyrimidine-5-carbonyl]amino]butanoyl]amino]-10,13-dioxo-9,12-diazatricyclo[13.3.1.12,6]icosa-1(18),2(20),3,5,15(19),16-hexaene-8-carboxamide]

Structure (SMILES): Cc1nc(-c2ccc(OCCC(C)(C)C)cc2)nc(C)c1C(=O)N[C@@H](CCN)C(=O)N(C)[C@@H]1C(=O)N[C@@H](C)C(=O)N[C@H](C(=O)NCC#N)Cc2ccc(OCCN)c(c2)-c2cc1ccc2O (racemic) [Compound 528, rac-(8S,11S,14S)-3-(2-aminoethoxy)-N-(cyanomethyl)-18-hydroxy-11-methyl-14-[methyl-[rac-(2S)-4-amino-2-[[2-[4-(3,3-dimethylbutoxy)phenyl]-4,6-dimethyl-pyrimidine-5-carbonyl]amino]butanoyl]amino]-10,13-dioxo-9,12-diazatricyclo[13.3.1.12,6]icosa-1(18),2(20),3,5,15(19),16-hexaene-8-carboxamide]
MIC [3]: 0.063 µM

MIC [2]: 0.5 µM
Structure (SMILES): Cc1nc(-c2ccc(C(C)(C)C)cc2)nc(C)c1C(=O)N[C@@H](CCN)C(=O)N(C)[C@@H]1C(=O)N[C@@H](C)C(=O)N[C@H](C(=O)NCC#N)Cc2ccc(O)c(c2)-c2cc1ccc2OC(C)CN (mixture of isomers) [Compound 607, rac-(8S,11S,14S)-18-(2-amino-1-methyl-ethoxy)-N-(cyanomethyl)-3-hydroxy-11-methyl-14-[methyl-[rac-(2S)-4-amino-2-[[2-(4-tert-butylphenyl)-4,6-dimethyl-pyrimidine-5-carbonyl]amino]butanoyl]amino]-10,13-dioxo-9,12-diazatricyclo[13.3.1.12,6]icosa-1(18),2(20),3,5,15(19),16-hexaene-8-carboxamide]

Structure (SMILES): CC(=O)Nc1cc2cc(c1O)-c1cc(ccc1OCCN)C[C@@H](C(=O)NCC#N)NC(=O)[C@H](C)NC(=O)[C@H]2N(C)C(=O)[C@H](CCN)NC(=O)c1c(C)nc(-c2ccc(C(C)(C)C)cc2)nc1C (racemic) [Compound 620, rac-(8S,11S,14S)-17-acetamido-3-(2-aminoethoxy)-N-(cyanomethyl)-18-hydroxy-11-methyl-14-[methyl-[rac-(2S)-4-amino-2-[[2-(4-tert-butylphenyl)-4,6-dimethyl-pyrimidine-5-carbonyl]amino]butanoyl]amino]-10,13-dioxo-9,12-diazatricyclo[13.3.1.12,6]icosa-1(18),2(20),3,5,15(19),16-hexaene-8-carboxamide]
MIC [4]: 0.5 µM

Structure (SMILES): COc1cc(O)c2cc1-c1cc(ccc1OCCN)[C@H](N(C)C(=O)[C@H](CCN)NC(=O)c1c(C)nc(-c3ccc(C(C)(C)C)cc3)nc1C)C(=O)N[C@@H](C)C(=O)N[C@H](C(=O)NCC#N)C2 (racemic) [Compound 625, rac-(8S,11S,14S)-18-(2-aminoethoxy)-N-(cyanomethyl)-5-hydroxy-3-methoxy-11-methyl-14-[methyl-[rac-(2S)-4-amino-2-[[2-(4-tert-butylphenyl)-4,6-dimethyl-pyrimidine-5-carbonyl]amino]butanoyl]amino]-10,13-dioxo-9,12-diazatricyclo[13.3.1.12,6]icosa-1(18),2(20),3,5,15(19),16-hexaene-8-carboxamide]
MIC [4]: 0.38 µM

Structure (SMILES): Cc1nc(-c2ccc(OC3CCCCC3)cc2)nc(C)c1C(=O)N[C@@H](CCNC=O)C(=O)N(C)[C@@H]1C(=O)N[C@@H](C)C(=O)N[C@H](C(=O)NCC#N)Cc2ccc(OCCN)c(c2)-c2cc1ccc2OCCN (racemic) [Compound 504, rac-(8S,11S,14S)-3,18-bis(2-aminoethoxy)-N-(cyanomethyl)-11-methyl-14-[methyl-[rac-(2S)-2-[[2-[4-(cyclohexoxy)phenyl]-4,6-dimethyl-pyrimidine-5-carbonyl]amino]-4-formamido-butanoyl]amino]-10,13-dioxo-9,12-diazatricyclo[13.3.1.12,6]icosa-1(18),2(20),3,5,15(19),16-hexaene-8-carboxamide]
MIC [1]: 0.75 µM

MIC [2]: 0.75 µM
Structure (SMILES): Cc1nc(-c2ccc(OC(C)C)cc2)nc(C)c1C(=O)N[C@@H](CNS(N)(=O)=O)C(=O)N(C)[C@@H]1C(=O)N[C@@H](C)C(=O)N[C@H](C(=O)NCC#N)Cc2ccc(OC[C@H](O)CN)c(c2)-c2cc1ccc2OC[C@H](O)CN (racemic) [Compound 579, rac-(8S,11S,14S)-N-(cyanomethyl)-11-methyl-14-[methyl-[rac-(2S)-2-[[2-(4-isopropoxyphenyl)-4,6-dimethyl-pyrimidine-5-carbonyl]amino]-3-(sulfamoylamino)propanoyl]amino]-10,13-dioxo-3,18-bis[rac-(2R)-3-amino-2-hydroxy-propoxy]-9,12-diazatricyclo[13.3.1.12,6]icosa-1(18),2(20),3,5,15(19),16-hexaene-8-carboxamide]

Structure (SMILES): CCC1(Oc2ccc(-c3nc(C)c(C(=O)N[C@@H](CCN)C(=O)N(C)[C@@H]4C(=O)N[C@@H](C)C(=O)N[C@H](C(=O)NCC#N)Cc5ccc(OCCN)c(c5)-c5cc4ccc5OCCN)c(C)n3)cc2)CC1 (racemic) [Compound 345, rac-(8S,11S,14S)-3,18-bis(2-aminoethoxy)-N-(cyanomethyl)-11-methyl-14-[methyl-[rac-(2S)-4-amino-2-[[2-[4-(1-ethylcyclopropoxy)phenyl]-4,6-dimethyl-pyrimidine-5-carbonyl]amino]butanoyl]amino]-10,13-dioxo-9,12-diazatricyclo[13.3.1.12,6]icosa-1(18),2(20),3,5,15(19),16-hexaene-8-carboxamide]
MIC [1]: 0.25 µM

Structure (SMILES): Cc1nc(-c2ccc(C(C)(C)C)cc2)nc(C)c1C(=O)N[C@@H](CCN)C(=O)N(C)[C@@H]1C(=O)N[C@@H](C)C(=O)N[C@H](C(=O)NCC#N)Cc2ccc(OC[C@H](O)CN)c(c2)-c2cc1ccc2O (racemic) [Compound 614, rac-(8S,11S,14S)-N-(cyanomethyl)-18-hydroxy-11-methyl-14-[methyl-[rac-(2S)-4-amino-2-[[2-(4-tert-butylphenyl)-4,6-dimethyl-pyrimidine-5-carbonyl]amino]butanoyl]amino]-10,13-dioxo-3-[rac-(2R)-3-amino-2-hydroxy-propoxy]-9,12-diazatricyclo[13.3.1.12,6]icosa-1(18),2(20),3,5,15(19),16-hexaene-8-carboxamide]
MIC [4]: 0.19 µM

Structure (SMILES): Cc1nc(-c2ccc(C(C)(C)C)cc2)ncc1C(=O)N[C@@H](CCNCC(N)=O)C(=O)N(C)[C@@H]1C(=O)N[C@@H](C)C(=O)N[C@H](C(=O)NCC#N)Cc2ccc(OCCN)c(c2)-c2cc1ccc2OCCN (racemic) [Compound 493, rac-(8S,11S,14S)-3,18-bis(2-aminoethoxy)-N-(cyanomethyl)-11-methyl-14-[methyl-[rac-(2S)-4-[(2-amino-2-oxo-ethyl)amino]-2-[[2-(4-tert-butylphenyl)-4-methyl-pyrimidine-5-carbonyl]amino]butanoyl]amino]-10,13-dioxo-9,12-diazatricyclo[13.3.1.12,6]icosa-1(18),2(20),3,5,15(19),16-hexaene-8-carboxamide]
MIC [1]: 1 µM

MIC [2]: 0.19 µM
Structure (SMILES): COc1c(OC[C@H](O)CN)cc2cc1-c1cc(ccc1OC[C@H](O)CN)C[C@@H](C(=O)NCC#N)NC(=O)[C@H](C)NC(=O)[C@H]2N(C)C(=O)[C@H](CCN)NC(=O)c1c(C)nc(-c2ccc(C(C)(C)C)cc2)nc1C (racemic) [Compound 586, rac-(8S,11S,14S)-N-(cyanomethyl)-18-methoxy-11-methyl-14-[methyl-[rac-(2S)-4-amino-2-[[2-(4-tert-butylphenyl)-4,6-dimethyl-pyrimidine-5-carbonyl]amino]butanoyl]amino]-10,13-dioxo-3,17-bis[rac-(2R)-3-amino-2-hydroxy-propoxy]-9,12-diazatricyclo[13.3.1.12,6]icosa-1(18),2(20),3,5,15(19),16-hexaene-8-carboxamide]
